Laboratory results reported in patent publication US5061708A, “Therapeutic guanine esters” (priority 1987, dated 1991).
Where a name gives a salt, the structure may show the parent alone.

Legend:
[1] = in words; cited from earlier work
herpes viruses = conditions: particularly against herpes viruses, in words; cited from earlier work
[2] = tested on: Herpes Simplex Virus (HSV 1); assay: HSV 1 plaque reduction assay in monolayers of Vero cells; type: cell-based; conditions: HSV 1, Vero cells, 50% inhibitory concentration
Description: Herpes Simplex Virus (HSV 1) was assayed in monolayers of Vero cells in multiwell trays. Activity of compounds was determined in the plaque reduction assay, in which a cell monolayer was infected with a suspension of HSV 1, and then overlaid with nutrient agarose in the form of a gel to ensure that there was no spread of virus throughout the culture. A range of concentrations of compound of known molarity was incorporated in the nutrient agarose overlay. Plaque numbers at each concentration were expressed as percentages of the control and a dose-response curve was drawn. From this curve the 50% inhibitory concentration (IC50) was estimated.

| Structure (SMILES) | absorption from the gastrointestinal tract after oral administration [1] | antiviral activity (herpes viruses) | IC50 [2] [µM] |
| --- | --- | --- | --- |
| Nc1nc2c(ncn2COCCO)c(=O)[nH]1 [Acyclovir, 9-(2-Hydroxyethoxymethyl)guanine] | only poorly absorbed | potent antiviral activity | 0.08 to 0.1 |
| CC[C@H](C)[C@H](N)C(=O)OCCOCn1cnc2c(=O)[nH]c(N)nc21 [Example 1, 2-(2-Amino-1,6-dihydro-6-oxo-9H(purin-9-yl)methoxy)ethyl L-isoleucinate hydrochloride] | – | – | 3.8 |
